Each structure is given as a SMILES string. Values after ≈ are worked out from the molar mass of the structure shown. A value given as a limit tells only on which side of the number the result lay.

Assay [1] deals with Candida albicans. Description: Antifungal activity against Candida albicans assessed as inhibition of fungal growth incubated for 24 hrs by microplate reader assay. Format: functional.
In assay [2] the test system is Candida parapsilosis. Nature of the assay: Antifungal activity against Candida parapsilosis assessed as inhibition of fungal growth incubated for 24 hrs by microplate reader assay. Format: functional. The settings on record: Lodderomyces parapsilosis.
Assay [3] concerns Nakaseomyces glabratus. Nature of the assay: Antifungal activity against Candida glabrata assessed as inhibition of fungal growth incubated for 24 hrs by microplate reader assay. Type of assay: functional.
In assay [4] the test system is Staphylococcus aureus. Nature of the assay: Antibacterial activity against Staphylococcus aureus ATCC 6538 assessed as zone of inhibition at 40 ug/ml incubated for 24 hrs by disk diffusion method. Type of assay: functional. The settings on record: read-out: IZ.
In assay [5] the test system is Bacillus subtilis. Nature of the assay: Antibacterial activity against Bacillus subtilis ATCC 6633 assessed as zone of inhibition at 40 ug/ml incubated for 24 hrs by disk diffusion method. Type of assay: functional. The following applies: read-out: IZ. On the technique in general: A growth-free zone around the sample is the usual read-out of agar diffusion tests.
For assay [6], the system named is Klebsiella pneumoniae. Description: Antibacterial activity against Klebsiella pneumoniae ATCC 13883 assessed as zone of inhibition at 40 ug/ml incubated for 24 hrs by disk diffusion method. Format: functional. The following applies: read-out: IZ.
Assay [7] relates to Escherichia coli. Nature of the assay: Antibacterial activity against Escherichia coli ATCC 25922 assessed as zone of inhibition at 40 ug/ml incubated for 24 hrs by disk diffusion method. Format: functional. The following applies: read-out: IZ.
For assay [8], the system named is Staphylococcus aureus. Nature of the assay: Antibacterial activity against Staphylococcus aureus ATCC 6538 assessed as inhibition of bacterial growth incubated for 24 hrs by disk diffusion method. Format: functional.
Assay [9] relates to Bacillus subtilis. Description: Antibacterial activity against Bacillus subtilis NRRL B-14819 assessed as inhibition of bacterial growth incubated for 24 hrs by disk diffusion method. Format: functional.
Assay [10] has as its system Micrococcus luteus. Description: Antibacterial activity against Micrococcus luteus ATCC 21881 assessed as inhibition of bacterial growth incubated for 24 hrs by disk diffusion method. Type of assay: functional.
Assay [11] has as its system Escherichia coli. Nature of the assay: Antibacterial activity against Escherichia coli ATCC 25922 assessed as inhibition of bacterial growth incubated for 24 hrs by disk diffusion method. Type of assay: functional.
The test system of assay [12] is Candida albicans. Description: Antifungal activity against Candida albicans assessed as inhibition of fungal growth incubated for 1 hr by serial plate dilution method. Type of assay: functional.
In assay [13] the test system is Staphylococcus aureus. Description: Antimicrobial activity against Staphylococcus aureus ATCC 6538 assessed as inhibition of microbial growth by microbroth dilution method. Type of assay: functional. In general terms: Broth dilution looks for growth in wells or tubes with falling amounts of substance.
The subject of assay [14] is Klebsiella pneumoniae. Description: Antimicrobial activity against Klebsiella pneumoniae ATCC 4352 assessed as inhibition of microbial growth by microbroth dilution method. Format: functional.
For assay [15], the system named is Candida albicans. Nature of the assay: Antimicrobial activity against Candida albicans ATCC 10231 assessed as inhibition of microbial growth by microbroth dilution method. Type of assay: functional.
In assay [16] the test system is Staphylococcus aureus. Nature of the assay: Antimicrobial activity against methicillin-resistant Staphylococcus aureus assessed as inhibition of microbial growth incubated for 18 to 24 hrs by agar broth microplate assay. Format: functional. The following applies: time 18-24 hrs, read-out: MIC100.
Assay [17] has as its system Salmonella typhimurium. Nature of the assay: Antimicrobial activity against Salmonella typhimurium assessed as inhibition of microbial growth incubated for 18 to 24 hrs by agar broth microplate assay. Type of assay: functional, Salmonella enterica subsp. enterica serovar Typhimurium. The following applies: Salmonella enterica; time 18-24 hrs; read-out: MIC100.
Assay [18] concerns Candida albicans. Nature of the assay: Antimicrobial activity against Candida albicans assessed as inhibition of microbial growth incubated for 18 to 24 hrs by agar broth microplate assay. Format: functional. The following applies: time 18-24 hrs, read-out: MIC100.
In assay [19] the test system is Escherichia coli. Description: Antibacterial activity against Escherichia coli assessed as inhibition of bacterial growth incubated for 18 to 24 hrs by broth macrodilution assay. Format: functional. The following applies: time 18-24 hrs.
Assay [20] has as its system Pseudomonas aeruginosa. Description: Antibacterial activity against Pseudomonas aeruginosa assessed as inhibition of bacterial growth incubated for 18 to 24 hrs by broth macrodilution assay. Type of assay: functional. The settings on record: time 18-24 hrs.
For assay [21], the system named is Salmonella typhi. Description: Antibacterial activity against Salmonella typhi assessed as inhibition of bacterial growth incubated for 18 to 24 hrs by broth macrodilution assay. The settings on record: Salmonella enterica; time 18-24 hrs. Format: functional, Salmonella enterica subsp. enterica serovar Typhi.
Assay [22] deals with Candida albicans. Nature of the assay: Antifungal activity against Candida albicans ATCC 10231 assessed as inhibition of fungal growth incubated for 24 hrs by broth dilution method. Type of assay: functional.
The subject of assay [23] is Nakaseomyces glabratus. Description: Antifungal activity against Candida glabrata DSM 11226 assessed as inhibition of fungal growth incubated for 24 hrs by broth dilution method. Type of assay: functional.
Assay [24] relates to Pichia kudriavzevii. Description: Antifungal activity against Candida krusei DSM 6128 assessed as inhibition of fungal growth incubated for 24 hrs by broth dilution method. Type of assay: functional.
In assay [25] the test system is Staphylococcus aureus. Nature of the assay: Antimicrobial activity against Staphylococcus aureus assessed as zone of inhibition at 40 ug/ml. The settings on record: read-out: IZ. Type of assay: functional.
Assay [26] deals with Bacillus subtilis. Description: Antimicrobial activity against Bacillus subtilis assessed as zone of inhibition at 40 ug/ml. The settings on record: read-out: IZ. Format: functional.
Assay [27] concerns Klebsiella pneumoniae. Description: Antimicrobial activity against Klebsiella pneumoniae assessed as zone of inhibition at 40 ug/ml. Type of assay: functional. The following applies: read-out: IZ.
Assay [28] relates to Escherichia coli. Description: Antimicrobial activity against Escherichia coli assessed as zone of inhibition at 40 ug/ml. Format: functional. The following applies: read-out: IZ.
Assay [29] deals with Aspergillus niger. Description: Antimicrobial activity against Aspergillus niger assessed as zone of inhibition at 50 ug/ml. Format: functional. The settings on record: read-out: IZ.
Assay [30] deals with Aspergillus flavus. Description: Antimicrobial activity against Aspergillus flavus assessed as zone of inhibition at 50 ug/ml. Format: functional. The settings on record: read-out: IZ.
Assay [31] concerns Fusarium oxysporum. Nature of the assay: Antimicrobial activity against Fusarium oxysporum assessed as zone of inhibition at 50 ug/ml. Format: functional. The following applies: read-out: IZ.
In assay [32] the test system is Staphylococcus aureus. Description: Antibacterial activity against Staphylococcus aureus PTCC 1133 assessed as inhibition of bacterial growth by serial dilution assay. Type of assay: functional.
Assay [33] concerns Escherichia coli. Description: Antibacterial activity against Escherichia coli PTCC 1330 assessed as inhibition of bacterial growth by serial dilution assay. Type of assay: functional.
The test system of assay [34] is Staphylococcus aureus. Nature of the assay: Antibacterial activity against Staphylococcus aureus ATCC 6538 assessed as inhibition of bacterial growth incubated for 24 hrs by alamar blue assay. Type of assay: functional. Background: Alamar Blue is a resazurin reagent that responds to reducing activity.
Assay [35] deals with Staphylococcus epidermidis. Nature of the assay: Antibacterial activity against Staphylococcus epidermidis ATCC 12228 assessed as inhibition of bacterial growth incubated for 24 hrs by alamar blue assay. Type of assay: functional.

As a reminder, the MIC80 is the lowest concentration that inhibits either 80% of growth or 80% of the strains tested, depending on the study. With `COc1ccc(CNCCCn2c3ccccc3c3ccccc32)cc1`, the MIC80 in assay [1] was determined as 16 µg/mL (≈ 46.4 µM); in assay [2], 8 µg/mL (≈ 23.2 µM); in [3], 4 µg/mL (≈ 11.6 µM).

Take `CCn1c2ccccc2c2cc(-c3cc(=O)c4ccccc4o3)ccc21`: the zone of inhibition at 40 µg/mL in [4] stood at 24 mm; in [5] it was 25 mm; in assay [6], 27 mm; in assay [7] it was 29 mm.

Regarding `CC1=NN(c2ccccc2)C(=O)/C1=N\NNC(=O)Cn1c2ccccc2c2ccccc21`, the MIC in [8] amounted to 1.1 µg/mL (≈ 2.59 µM); in assay [9], 1.2 µg/mL (≈ 2.83 µM); in [10], 3.1 µg/mL (≈ 7.3 µM); in assay [11] it was 6.4 µg/mL (≈ 15.1 µM); in [12] it was 9.6 µg/mL (≈ 22.6 µM).

`Oc1c(/C=N/c2ccc(Cl)cc2Cl)ccc2[nH]c3ccccc3c12`: the MIC in assay [13], in assay [14] and in assay [15] was 1.4 µg/mL in each case.

As to `O=c1[nH]n(-c2ccccc2)c(=O)c2cc3c(cc12)[nH]c1ccc([N+](=O)[O-])cc13`, the values for the MIC in assay [16], in assay [17] and in assay [18] were 12 µg/mL, more than 512 µg/mL and 32 µg/mL, respectively.

As to `CCOC(=O)C1=C(C)NC2=C(C(=O)CC(C)(C)C2)C1c1ccc2c(c1)c1ccccc1n2CC` (stereo not given), the MIC in assay [19], in assay [20] and in assay [21] was 16 µg/mL (≈ 35 µM) in each case.

Turning to `CNc1nc(Nc2ccc3[nH]c4ccc(Nc5cnc(N)c(NC)n5)cc4c3c2)cnc1N`, the MIC turned out to be 250 µg/mL (≈ 566 µM) in [22], 62.5 µg/mL (≈ 142 µM) in assay [23] and 31.2 µg/mL (≈ 70.8 µM) in [24].

For the compound `CCn1c2ccccc2c2cc(/C=C/C(=O)c3cc(Cl)cc(Cl)c3OCc3cn(Cc4ccccc4)nn3)ccc21`, the zone of inhibition at 40 µg/mL is 21.4 mm in assay [25], 24.2 mm in assay [26], 23.6 mm in assay [27] and 26.4 mm in assay [28]. Besides, the zone of inhibition at 50 µg/mL worked out at 15 mm in [29], 12.9 mm in assay [30] and 15.3 mm in [31].

Usually MIC50 stands for the lowest concentration that inhibits either 50% of growth or 50% of the strains tested, depending on the study. Consider `CCC(O)Cn1cc(Cn2c3ccccc3c3ccccc32)nn1` (stereo not given), for which the MIC50 in [32] came out at 1.56 µg/mL (≈ 4.88 µM); in assay [33] it was 3.12 µg/mL (≈ 9.75 µM).

As to `COc1ccccc1OCCNCC(O)COc1cccc2[nH]c3ccccc3c12` (stereo not given) [CARVEDILOL], the MIC in assay [34] and in assay [35] was 40 µg/mL (≈ 98.4 µM) in each case.

Values taken from ChEMBL document CHEMBL5532637, “Antimicrobial activity of natural and semi-synthetic carbazole alkaloids” (Eur J Med Chem, 2023).
